Test system: PC3 cells
Experiment: NAMPT Cell Proliferation Assay
Assay type: cell-based
Conditions: Homo sapiens, PC-3, 120 h, 5 days incubation, cell viability by Cell Titer Glo
Method in brief: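 Five-day CellTiter-Glo viability readout in PC3 cells grown in RPMI/10% heat-inactivated FBS. Compounds added after overnight attachment as a 10-fold dilution series, […]. Percent inhibition fitted to sigmoidal dose-response to derive IC50.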

| Compound | IC50 |
| --- | --- |
| O=C(Nc1ccc(C2CCN(C(=O)c3cc(C(F)(F)F)ccc3F)CC2)cc1)[C@H]1CCN(c2cccnn2)C1 [Example 703, (3S)-N-(4-{1-[2-fluoro-5-(trifluoromethyl)benzoyl]piperidin-4-yl}phenyl)-1-(pyridazin-3-yl)pyrrolidine-3-carboxamide] | 8.43 nM |
| O=C(Nc1ccc(C2CCN(C(=O)CC3CCCCC3)CC2)cc1)[C@H]1CCN(c2cccnn2)C1 [Example 704, (3S)-N-{4-[1-(cyclohexylacetyl)piperidin-4-yl]phenyl}-1-(pyridazin-3-yl)pyrrolidine-3-carboxamide] | 5.3 nM |
| COc1ccc(C(=O)N2CCC(c3ccc(NC(=O)[C@H]4CCN(c5cccnn5)C4)cc3)CC2)cc1 [Example 705, (3S)-N-{4-[1-(4-methoxybenzoyl)piperidin-4-yl]phenyl}-1-(pyridazin-3-yl)pyrrolidine-3-carboxamide] | 20.2 nM |
| CCC(C)C(=O)N1CCC(c2ccc(NC(=O)[C@H]3CCN(c4cccnn4)C3)cc2)CC1 (stereo partly drawn) [Example 706, (3S)-N-{4-[1-(2-methylbutanoyl)piperidin-4-yl]phenyl}-1-(pyridazin-3-yl)pyrrolidine-3-carboxamide] | 7.7 nM |
| CCC(CC)C(=O)N1CCC(c2ccc(NC(=O)[C@H]3CCN(c4cccnn4)C3)cc2)CC1 [Example 707, (3S)-N-{4-[1-(2-ethylbutanoyl)piperidin-4-yl]phenyl}-1-(pyridazin-3-yl)pyrrolidine-3-carboxamide] | 6.93 nM |
| CC(C)(C)c1ccc(C(=O)N2CCC(c3ccc(NC(=O)[C@H]4CCN(c5cccnn5)C4)cc3)CC2)cc1 [Example 708, (3S)-N-{4-[1-(4-tert-butylbenzoyl)piperidin-4-yl]phenyl}-1-(pyridazin-3-yl)pyrrolidine-3-carboxamide] | 14.2 nM |
| O=C(Nc1ccc(C2CCN(C(=O)c3cccc(Cl)c3)CC2)cc1)[C@H]1CCN(c2cccnn2)C1 [Example 709, (3S)-N-{4-[1-(3-chlorobenzoyl)piperidin-4-yl]phenyl}-1-(pyridazin-3-yl)pyrrolidine-3-carboxamide] | 14.5 nM |
| O=C(Nc1ccc(C2CCN(C(=O)Cc3ccccc3F)CC2)cc1)[C@H]1CCN(c2cccnn2)C1 [Example 710, (3S)-N-(4-{1-[(2-fluorophenyl)acetyl]piperidin-4-yl}phenyl)-1-(pyridazin-3-yl)pyrrolidine-3-carboxamide] | 10.3 nM |
| O=C(Nc1ccc(C2CCN(C(=O)c3cccc(C(F)(F)F)c3)CC2)cc1)[C@H]1CCN(c2cccnn2)C1 [Example 711, (3S)-1-(pyridazin-3-yl)-N-(4-{1-[3-(trifluoromethyl)benzoyl]piperidin-4-yl}phenyl)pyrrolidine-3-carboxamide] | 59.5 nM |
| CC1(C(=O)N2CCC(c3ccc(NC(=O)[C@H]4CCN(c5cccnn5)C4)cc3)CC2)CC1 [Example 712, (3S)-N-(4-{1-[(1-methylcyclopropyl)carbonyl]piperidin-4-yl}phenyl)-1-(pyridazin-3-yl)pyrrolidine-3-carboxamide] | 6.79 nM |
| C#CCCC(=O)N1CCC(c2ccc(NC(=O)[C@H]3CCN(c4cccnn4)C3)cc2)CC1 [Example 713, (3S)-N-{4-[1-(pent-4-ynoyl)piperidin-4-yl]phenyl}-1-(pyridazin-3-yl)pyrrolidine-3-carboxamide] | 9.99 nM |
| O=C(Nc1ccc(C2CCN(C(=O)Cc3cccc(F)c3)CC2)cc1)[C@H]1CCN(c2cccnn2)C1 [Example 714, (3S)-N-(4-{1-[(3-fluorophenyl)acetyl]piperidin-4-yl}phenyl)-1-(pyridazin-3-yl)pyrrolidine-3-carboxamide] | 17.6 nM |
| CSCCC(=O)N1CCC(c2ccc(NC(=O)[C@H]3CCN(c4cccnn4)C3)cc2)CC1 [Example 715, (3S)-N-(4-{1-[3-(methylsulfanyl)propanoyl]piperidin-4-yl}phenyl)-1-(pyridazin-3-yl)pyrrolidine-3-carboxamide] | 11.8 nM |
| CC(=O)N1CCC(C(=O)N2CCC(c3ccc(NC(=O)[C@H]4CCN(c5cccnn5)C4)cc3)CC2)CC1 [Example 716, (3S)-N-(4-{1-[(1-acetylpiperidin-4-yl)carbonyl]piperidin-4-yl}phenyl)-1-(pyridazin-3-yl)pyrrolidine-3-carboxamide] | 69.2 nM |
| C=CCC(=O)N1CCC(c2ccc(NC(=O)[C@H]3CCN(c4cccnn4)C3)cc2)CC1 [Example 717, (3S)-N-{4-[1-(but-3-enoyl)piperidin-4-yl]phenyl}-1-(pyridazin-3-yl)pyrrolidine-3-carboxamide] | 12.1 nM |
| CCC(C)(C)C(=O)N1CCC(c2ccc(NC(=O)[C@H]3CCN(c4cccnn4)C3)cc2)CC1 [Example 718, (3S)-N-{4-[1-(2,2-dimethylbutanoyl)piperidin-4-yl]phenyl}-1-(pyridazin-3-yl)pyrrolidine-3-carboxamide] | 6.27 nM |
| Cc1ccc(C(=O)N2CCC(c3ccc(NC(=O)[C@H]4CCN(c5cccnn5)C4)cc3)CC2)cc1F [Example 719, (3S)-N-{4-[1-(3-fluoro-4-methylbenzoyl)piperidin-4-yl]phenyl}-1-(pyridazin-3-yl)pyrrolidine-3-carboxamide] | 9.63 nM |
| COc1cccc(C(=O)N2CCC(c3ccc(NC(=O)[C@H]4CCN(c5cccnn5)C4)cc3)CC2)c1 [Example 720, (3S)-N-{4-[1-(3-methoxybenzoyl)piperidin-4-yl]phenyl}-1-(pyridazin-3-yl)pyrrolidine-3-carboxamide] | 8.57 nM |
| O=C(Nc1ccc(C2CCN(C(=O)Cc3ccccc3Cl)CC2)cc1)[C@H]1CCN(c2cccnn2)C1 [Example 721, (3S)-N-(4-{1-[(2-chlorophenyl)acetyl]piperidin-4-yl}phenyl)-1-(pyridazin-3-yl)pyrrolidine-3-carboxamide] | 8.39 nM |
| COCCOCC(=O)N1CCC(c2ccc(NC(=O)[C@H]3CCN(c4cccnn4)C3)cc2)CC1 [Example 722, (3S)-N-(4-{1-[(2-methoxyethoxy)acetyl]piperidin-4-yl}phenyl)-1-(pyridazin-3-yl)pyrrolidine-3-carboxamide] | 84.8 nM |
| CC(C)(C)CC(=O)N1CCC(c2ccc(NC(=O)[C@H]3CCN(c4cccnn4)C3)cc2)CC1 [Example 723, (3S)-N-{4-[1-(3,3-dimethylbutanoyl)piperidin-4-yl]phenyl}-1-(pyridazin-3-yl)pyrrolidine-3-carboxamide] | 3.51 nM |
| CC(=O)N[C@@H](CC(C)C)C(=O)N1CCC(c2ccc(NC(=O)[C@H]3CCN(c4cccnn4)C3)cc2)CC1 [Example 724, (3S)-N-{4-[1-(N-acetyl-L-leucyl)piperidin-4-yl]phenyl}-1-(pyridazin-3-yl)pyrrolidine-3-carboxamide] | 80.9 nM |
| O=C(Nc1ccc(C2CCN(C(=O)c3cccc(F)c3)CC2)cc1)[C@H]1CCN(c2cccnn2)C1 [Example 725, (3S)-N-{4-[1-(3-fluorobenzoyl)piperidin-4-yl]phenyl}-1-(pyridazin-3-yl)pyrrolidine-3-carboxamide] | 4.01 nM |
| N#Cc1ccc(C(=O)N2CCC(c3ccc(NC(=O)[C@H]4CCN(c5cccnn5)C4)cc3)CC2)cc1 [Example 726, (3S)-N-{4-[1-(4-cyanobenzoyl)piperidin-4-yl]phenyl}-1-(pyridazin-3-yl)pyrrolidine-3-carboxamide] | 32.7 nM |
| COc1ccccc1C(=O)N1CCC(c2ccc(NC(=O)[C@H]3CCN(c4cccnn4)C3)cc2)CC1 [Example 727, (3S)-N-{4-[1-(2-methoxybenzoyl)piperidin-4-yl]phenyl}-1-(pyridazin-3-yl)pyrrolidine-3-carboxamide] | 4.6 nM |

— US20130303509A1, “NAMPT INHIBITORS” (AbbVie Inc., priority 2012, published 2013)
